The source of these data is patent US20070117770A1, “Human ribosomal DNA (rDNA) and ribosomal RNA (rRNA) nucleic acids and uses thereof” (Cylene Pharmaceuticals, Inc., priority 2005, published 2007).

The target of experiment [1] is PKBγ(h) (Homo sapiens, UniProt Q9Y243). In words: Protein kinase inhibition assay. The note with it: read-out: percent residual activity of PKBγ(h). The experiment is classed as biochemical. The protocol:
(§1) Certain compounds were tested for activity in protein kinase inhibition assays. All substrates were dissolved and diluted to working stocks in de-ionized water, apart from histone H1 (10× working stock in 20 mM MOPS pH 7.0), PDKtide (10× working stock in 50 mM Tris pH 7.0) ATF2 (which is typically stored at a 20× working stock in 50 mM Tris pH 7.5, 150 mM NaCl, 0.1 mM EGTA, 0.03% Brij-35, 50% glycerol, 1 mM benzamidine, 0.2 mM PMSF and 0.1% R-mercaptoethanol), KKLNRTLSFAEPG (SEQ ID NO:203) and RRRLSFAEPG (SEQ ID NO:204) (50 mM HEPES pH 7.4) and GGEEEEYFELVKKKK (SEQ ID NO:205) (20 mM MOPS pH 7.0). All kinases were pre-diluted to a 10× working concentration prior to addition into the assay. The composition of the dilution buffer for each kinase is detailed below.
(§2) In a final reaction volume of 25 μl, PKBγ (h) (5-10 mU) is incubated with 8 mM MOPS pH 7.0, 0.2 mM EDTA, 30 μM GRPRTSSFAEGKK (SEQ ID NO:232), 10 mM MgAcetate and [gamma-33P-ATP] (specific activity approx. 500 cpm/pmol, concentration as required). The reaction is initiated by the addition of the MgATP mix. After incubation for 40 minutes at room temperature, the reaction is stopped by the addition of 5 μl of a 3% phosphoric acid solution. 10 μl of the reaction is then spotted onto a P30 filtermat and washed three times for 5 minutes in 75 mM phosphoric acid and once in methanol prior to drying and scintillation counting.

Experiment [2] relates to c-myc mRNA in HCT116 cells. In words: RNA Polymerase II-dependent RNA synthesis (c-myc mRNA, Taqman qRT-PCR). The experiment is classed as cell-based. The settings on record: at the tested concentrations. The method, then:
Effects of compound A-1 and compound B-1 on DNA synthesis, RNA synthesis and protein synthesis were determined in HCT116 cells. HCT116 cells were plated overnight at 100,000 cells per mL. Next day cells were treated with increasing amounts of either compound A-1 or compound B-1 followed by one hour incubation with BrdU label (from a BrdU Cell proliferation Assay Kit, Calbiochem) to monitor DNA synthesis; […] of ^3H-uridine to monitor total RNA synthesis; […] of ^3H-methionine to monitor protein synthesis or plain media to monitor RNA Polymerase II-dependent RNA synthesis. DNA synthesis was assessed using a BrdU-ELISA (BrdU Cell proliferation Assay Kit, Calbiochem). To measure total RNA synthesis, total RNA from treated cells was isolated with a RNease kit (QIAGEN), levels of total RNA were assessed with Ribogreen reagent (Invitrogen) and the newly synthesized tritiated RNA was measured in a scintillation Counter (Perkin Elmer). To measure effects on protein synthesis, cells were lysed in a RIPA buffer, and total protein was precipitated with 10% TCA on a glass-filters. Newly synthesized tritiated protein was measured in a scintillation Counter (Perkin Elmer). Effects of drugs on […] RNA synthesis were assessed by monitoring levels of a c-myc mRNA, which has a relatively short half-life of approximately 30 minutes, by Taqman qRT-PCR (ABI).

Experiment [3] has as its target CDK3/cyclinE(h) (Homo sapiens, UniProt Q00526). In words: Protein kinase inhibition assay. The experiment is classed as biochemical. The note with it: read-out: percent residual activity of CDK3/cyclinE(h). The protocol:
as §1
as §2, with “CDK3/cyclinE” for “PKBγ”, “0.1 mg/ml histone H1,” for “30 μM GRPRTSSFAEGKK (SEQ ID NO:232),”

The target of experiment [4] is MAPKAP-K3(h) (Homo sapiens, UniProt Q16644). Put plainly: Protein kinase inhibition assay. The experiment is classed as biochemical. The settings on record: read-out: percent residual activity of MAPKAP-K3(h). The protocol: as §1
Sequence of MAPKAP-K3(h) (Q16644 whole entry): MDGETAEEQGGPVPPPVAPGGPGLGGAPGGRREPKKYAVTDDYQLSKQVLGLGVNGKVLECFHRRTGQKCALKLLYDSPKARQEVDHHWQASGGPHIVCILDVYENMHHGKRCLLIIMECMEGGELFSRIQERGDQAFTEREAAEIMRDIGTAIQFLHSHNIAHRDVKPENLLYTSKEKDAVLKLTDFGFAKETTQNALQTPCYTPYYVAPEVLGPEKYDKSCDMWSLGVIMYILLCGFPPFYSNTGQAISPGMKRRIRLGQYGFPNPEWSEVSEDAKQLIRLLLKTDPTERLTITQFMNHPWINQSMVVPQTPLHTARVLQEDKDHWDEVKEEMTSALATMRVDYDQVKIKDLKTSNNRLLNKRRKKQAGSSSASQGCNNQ
In a final reaction volume of 25 μl, MAPKAP-K3 (h) (5-10 mU) is incubated with 50 mM Na R-glycerophosphate pH 7.5, 0.1 mM EGTA, 30 μM KKLNRTLSVA (SEQ ID NO:212), 10 mM MgAcetate and [gamma-33P-ATP] (specific activity approx. 500 cpm/pmol, concentration as required). The reaction is initiated by the addition of the MgATP mix. After incubation for 40 minutes at room temperature, the reaction is stopped by the addition of 5 μl of a 3% phosphoric acid solution. […]

The target of experiment [5] is PKCζ(h) (Homo sapiens, UniProt Q05513). In words: Protein kinase inhibition assay. The experiment is classed as biochemical. The note with it: read-out: percent residual activity of PKCζ(h). The protocol:
as §1
as §2, with “μl, PKCξ” for “μl, PKBγ”, “EDTA, 50” for “EDTA, 30”, “μM ERMRPRKRQGSVRRRV” for “μM GRPRTSSFAEGKK”, “ID NO:224),” for “ID NO:232),”

Experiment [6] deals with PKCι(h) (Homo sapiens, UniProt P41743). In words: Protein kinase inhibition assay. The note with it: read-out: percent residual activity of PKCι(h). The experiment is classed as biochemical. The protocol: as §1
Sequence of PKCι(h) (P41743 whole entry): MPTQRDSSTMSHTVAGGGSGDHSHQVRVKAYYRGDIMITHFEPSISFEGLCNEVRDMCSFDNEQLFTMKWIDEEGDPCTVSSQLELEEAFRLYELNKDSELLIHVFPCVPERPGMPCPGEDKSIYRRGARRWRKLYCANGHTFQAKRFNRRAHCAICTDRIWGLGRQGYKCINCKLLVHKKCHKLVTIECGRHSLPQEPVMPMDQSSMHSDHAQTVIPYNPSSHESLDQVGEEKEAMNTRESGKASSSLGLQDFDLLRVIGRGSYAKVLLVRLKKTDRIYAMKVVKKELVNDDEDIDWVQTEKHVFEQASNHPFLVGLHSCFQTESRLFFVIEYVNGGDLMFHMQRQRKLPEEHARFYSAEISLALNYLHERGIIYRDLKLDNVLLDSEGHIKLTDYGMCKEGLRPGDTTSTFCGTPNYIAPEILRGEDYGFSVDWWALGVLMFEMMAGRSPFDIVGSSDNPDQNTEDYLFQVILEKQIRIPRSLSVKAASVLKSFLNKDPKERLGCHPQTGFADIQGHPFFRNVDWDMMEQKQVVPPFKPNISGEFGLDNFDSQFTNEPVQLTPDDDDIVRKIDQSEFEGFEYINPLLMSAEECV
In a final reaction volume of 25 μl, PKCι (h) (5-10 mU) is incubated with 20 mM HEPES pH 7.4, 0.03%. Triton X-100, 50 μM ERMRPRKRQGSVRRRV (SEQ ID NO:224), 10 mM MgAcetate and [gamma-33P-ATP] (specific activity approx. 500 cpm/pmol, concentration as required). The reaction is initiated by the addition of the MgATP mix. After incubation for 40 minutes at room temperature, the reaction is stopped by the addition of 5 μl of a 3% phosphoric acid solution. […]

Sequence of PKCζ(h) (Q05513 whole entry): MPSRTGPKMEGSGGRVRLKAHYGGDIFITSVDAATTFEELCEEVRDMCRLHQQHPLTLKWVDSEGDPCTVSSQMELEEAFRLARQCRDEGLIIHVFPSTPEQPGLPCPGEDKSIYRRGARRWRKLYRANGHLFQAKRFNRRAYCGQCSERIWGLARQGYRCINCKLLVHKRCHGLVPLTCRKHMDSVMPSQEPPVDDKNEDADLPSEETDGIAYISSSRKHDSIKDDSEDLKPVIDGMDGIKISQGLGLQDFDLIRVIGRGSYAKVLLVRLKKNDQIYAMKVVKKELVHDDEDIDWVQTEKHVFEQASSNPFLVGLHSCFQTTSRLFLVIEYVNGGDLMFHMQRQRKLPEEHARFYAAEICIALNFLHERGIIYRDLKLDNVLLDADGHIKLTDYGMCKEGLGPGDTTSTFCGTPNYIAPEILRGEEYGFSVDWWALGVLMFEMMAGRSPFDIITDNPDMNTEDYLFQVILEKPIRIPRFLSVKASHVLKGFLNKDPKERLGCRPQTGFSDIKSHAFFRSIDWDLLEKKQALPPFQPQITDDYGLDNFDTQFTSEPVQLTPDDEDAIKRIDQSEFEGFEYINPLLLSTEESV
Sequence of PKBγ(h) (Q9Y243 whole entry): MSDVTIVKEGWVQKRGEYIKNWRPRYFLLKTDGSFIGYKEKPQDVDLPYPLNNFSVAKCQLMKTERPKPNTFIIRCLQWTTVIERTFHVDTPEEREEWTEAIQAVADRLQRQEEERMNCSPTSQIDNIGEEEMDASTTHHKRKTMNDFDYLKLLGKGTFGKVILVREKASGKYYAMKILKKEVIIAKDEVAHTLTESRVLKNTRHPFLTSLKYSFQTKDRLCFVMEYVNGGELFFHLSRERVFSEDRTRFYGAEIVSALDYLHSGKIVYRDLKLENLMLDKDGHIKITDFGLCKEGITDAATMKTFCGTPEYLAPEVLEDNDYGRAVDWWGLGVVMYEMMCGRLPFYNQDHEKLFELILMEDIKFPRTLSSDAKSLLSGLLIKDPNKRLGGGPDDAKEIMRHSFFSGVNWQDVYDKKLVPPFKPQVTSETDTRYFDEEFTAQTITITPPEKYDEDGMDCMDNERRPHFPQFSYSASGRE
Sequence of CDK3/cyclinE(h) (Q00526 whole entry): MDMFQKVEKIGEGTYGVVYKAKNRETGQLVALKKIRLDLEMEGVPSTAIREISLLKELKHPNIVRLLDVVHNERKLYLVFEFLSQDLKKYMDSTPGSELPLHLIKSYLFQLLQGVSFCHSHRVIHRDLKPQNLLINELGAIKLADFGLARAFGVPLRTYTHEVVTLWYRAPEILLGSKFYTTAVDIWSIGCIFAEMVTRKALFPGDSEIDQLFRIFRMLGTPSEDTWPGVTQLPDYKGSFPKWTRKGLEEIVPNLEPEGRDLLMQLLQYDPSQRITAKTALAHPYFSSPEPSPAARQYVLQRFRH
Sequence of CDK3/cyclinE(h) (P24864 whole entry partner): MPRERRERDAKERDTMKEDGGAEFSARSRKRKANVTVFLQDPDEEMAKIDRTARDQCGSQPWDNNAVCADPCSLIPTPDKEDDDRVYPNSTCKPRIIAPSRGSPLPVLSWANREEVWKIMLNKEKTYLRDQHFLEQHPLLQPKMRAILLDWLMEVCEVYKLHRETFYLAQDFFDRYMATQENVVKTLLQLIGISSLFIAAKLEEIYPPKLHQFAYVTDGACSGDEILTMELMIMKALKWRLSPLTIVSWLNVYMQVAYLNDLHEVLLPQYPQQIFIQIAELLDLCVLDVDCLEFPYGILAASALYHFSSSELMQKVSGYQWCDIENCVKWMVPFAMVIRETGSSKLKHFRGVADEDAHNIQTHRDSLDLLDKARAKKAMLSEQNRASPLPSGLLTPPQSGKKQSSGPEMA

Regarding `CN1CCCC1CCNC(=O)c1cn2c3c(c(N4CCC(c5cnccn5)C4)c(F)cc3c1=O)Oc1cc3ccccc3cc1-2` (stereo not drawn) [Compound A-1], the remaining activity at 2.5 µM in experiment [1] is 64%; in experiment [3] it was 93%; in experiment [4] it was 94%; in experiment [5], 56%; in experiment [6], 72%. Also, the “effect on c-myc mRNA levels” value in experiment [2] is reported as “no measureable effect”.

`CC(=O)N1CCN(c2ccc3c(=O)c(C(=O)NCCN4CCCC4)c4n(C)c5ccccc5n4c3n2)CC1` [Compound B-1]: the remaining activity at 2.5 µM in experiment [1] was 95%; in experiment [3], 103%; in experiment [4] it was 109%; in experiment [5] it was 113%; in experiment [6] it was 95%. The “effect on c-myc mRNA levels” value in experiment [2] was “no measureable effect”.
